# According to US9169254B2, “Spiroimidazolone derivative” (Chugai Seiyaku Kabushiki Kaisha, priority 2009, dated 2015):
# Target: T1, human PTH1 receptor (Homo sapiens, UniProt Q03431)
# T1 sequence (Q03431 27-593): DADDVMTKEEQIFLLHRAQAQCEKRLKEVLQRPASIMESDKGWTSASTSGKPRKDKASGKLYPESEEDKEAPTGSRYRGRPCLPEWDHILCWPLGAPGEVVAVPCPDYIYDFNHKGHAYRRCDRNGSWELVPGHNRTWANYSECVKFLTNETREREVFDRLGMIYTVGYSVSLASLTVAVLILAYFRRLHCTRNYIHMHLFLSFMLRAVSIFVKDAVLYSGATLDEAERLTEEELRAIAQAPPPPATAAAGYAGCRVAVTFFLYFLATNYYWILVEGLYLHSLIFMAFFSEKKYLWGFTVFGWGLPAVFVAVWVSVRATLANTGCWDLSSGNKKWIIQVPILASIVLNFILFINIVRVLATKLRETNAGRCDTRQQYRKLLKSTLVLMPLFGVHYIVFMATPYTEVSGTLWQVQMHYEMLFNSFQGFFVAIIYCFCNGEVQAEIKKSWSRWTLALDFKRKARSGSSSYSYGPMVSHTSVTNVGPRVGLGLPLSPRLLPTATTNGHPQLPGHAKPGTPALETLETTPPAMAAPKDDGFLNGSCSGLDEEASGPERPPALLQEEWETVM
# Experiment: In vitro cAMP signal activity in HKRK-B7 cells (LLC-PK1 cells overexpressing the human PTH1 receptor)
# Format: cell-based
# Details: HKRK-B7 cells; compound at 1×10^−3 M; cAMP produced as percentage of that produced by hPTH(1-34) at 100 nM
row,Compound,cAMP production activity (%)
1,"CN(C(=O)c1cccc(C2=NC3(CCN(S(=O)(=O)c4cccc(Cl)c4)CC3)C(=O)N2)c1)c1ccccc1 [Compound 349, 3-[8-(3-chloro-benzenesulfonyl)-4-oxo-1,3,8-triaza-spiro[4.5]dec-1-en-2-yl]-N-methyl-N-phenyl-benzamide]",11%
2,"Cc1cc(C(=O)N(C)C)cc(C)c1CCS(=O)(=O)N1CCC2(CC1)N=C(C1CCC(C)CC1)NC2=O (stereo not drawn) [Compound 1379, 3,5,N,N-tetramethyl-4-{2-[2-(4-methyl-cyclohexyl)-4-oxo-1,3,8-triaza-spiro[4.5]dec-1-ene-8-sulfonyl]-ethyl}-benzamide]",86%
3,"CCCC[C@@H]1CCC[C@H](C2=NC3(CCN(S(=O)(=O)CCc4c(C)cc(N(C)C(N)=O)cc4C)CC3)C(=O)N2)C1 [Compound 1145, 1-(4-{2-[2-((1S,3R)-3-butyl-cyclohexyl)-4-oxo-1,3,8-triaza-spiro[4.5]dec-1-ene-8-sulfonyl]-ethyl}-3,5-dimethyl-phenyl)-1-methyl-urea]",102%
4,"Cc1cc(C(=O)N2CCC(O)CC2)cc(C)c1CCS(=O)(=O)N1CCC2(CC1)N=C(c1cccc(OC(F)(F)F)c1)NC2=O [Compound 964, 8-{2-[4-(4-Hydroxy-piperidine-1-carbonyl)-2,6-dimethyl-phenyl]-ethanesulfonyl}-2-(3-trifluoromethoxy-phenyl)-1,3,8-triaza-spiro[4.5]dec-1-en-4-one]",119%
5,"C=CCCOc1cc(C2=NC3(CCN(S(=O)(=O)CCc4ccc(C(=O)N(C)CCOCC=C)cc4C)CC3)C(=O)N2)cc(C(F)(F)F)c1 [Compound 1419, N-(2-Allyloxy-ethyl)-4-{2-[2-(3-but-3-enyloxy-5-trifluoromethyl-phenyl)-4-oxo-1,3,8-triaza-spiro[4.5]dec-1-ene-8-sulfonyl]-ethyl}-3,N-dimethyl-benzamide]",70%
6,"Cc1cc(CO)cc(C)c1CCS(=O)(=O)N1CCC2(CC1)N=C(C1CCC(CCC(F)(F)F)CC1)NC2=O (stereo not drawn) [Compound 770, 8-[2-(4-hydroxymethyl-2,6-dimethyl-phenyl)-ethanesulfonyl]-2-[4-(3,3,3-trifluoro-propyl)-cyclohexyl]-1,3,8-triaza-spiro[4.5]dec-1-en-4-one]",105%
7,"Cc1cc(N2C(=O)C(C)(C)C[C@@H]2CO)cc(C)c1/C=C/S(=O)(=O)N1CCC2(CC1)N=C(c1cccc(OC(F)(F)F)c1)NC2=O [Compound 712, 8-{(E)-2-[4-((R)-5-hydroxymethyl-3,3-dimethyl-2-oxo-pyrrolidin-1-yl)-2,6-dimethyl-phenyl]-ethenesulfonyl}-2-(3-trifluoromethoxy-phenyl)-1,3,8-triaza-spiro[4.5]dec-1-en-4-one]",16%
8,"O=C(NCCO)Nc1ccc(CCS(=O)(=O)N2CCC3(CC2)N=C(C2CCCCC2)NC3=O)c(C(F)(F)F)c1 [Compound 278, 1-{4-[2-(2-cyclohexyl-4-oxo-1,3,8-triaza-spiro[4.5]dec-1-ene-8-sulfonyl)-ethyl]-3-trifluoromethyl-phenyl}-3-(2-hydroxy-ethyl)-urea]",59%
9,"Cc1cc(C(=O)N(C)C)ccc1CCS(=O)(=O)N1CCC2(CC1)N=C(c1cccc(C(F)(F)F)c1)NC2=O [Compound 86, 3,N,N-trimethyl-4-{2-[4-oxo-2-(3-trifluoromethyl-phenyl)-1,3,8-triaza-spiro[4.5]dec-1-ene-8-sulfonyl]-ethyl}-benzamide]",66%
10,"COC(=O)N1CCCC(C2=NC3(CCN(S(=O)(=O)c4cccc(Cl)c4)CC3)C(=O)N2)C1 (stereo not drawn) [Compound 463, 3-[8-(3-chloro-benzenesulfonyl)-4-oxo-1,3,8-triaza-spiro[4.5]dec-1-en-2-yl]-piperidine-1-carboxylic acid methyl ester]",28%
11,"Cc1cc(N2C(=O)CNC2=O)ccc1CCS(=O)(=O)N1CCC2(CC1)N=C(c1cccc(OC(F)(F)F)c1)NC2=O [Compound 792, 3-(3-methyl-4-{2-[4-oxo-2-(3-trifluoromethoxy-phenyl)-1,3,8-triaza-spiro[4.5]dec-1-ene-8-sulfonyl]-ethyl}-phenyl)-imidazolidine-2,4-dione]",110%
12,"Cc1cc(N(C)C(N)=O)cc(C)c1CCS(=O)(=O)N1CCC2(CC1)N=C(CCCCCc1ccccc1)NC2=O [Compound 1340, 1-(3,5-dimethyl-4-{2-[4-oxo-2-(5-phenyl-pentyl)-1,3,8-triaza-spiro[4.5]dec-1-ene-8-sulfonyl]-ethyl}-phenyl)-1-methyl-urea]",84%
13,"CC[C@H]1CC[C@H](C2=NC3(CCN(S(=O)(=O)CCc4ccc(N5C(=O)NC(=O)C5C)cc4C)CC3)C(=O)N2)CC1 (stereo partly drawn) [Compound 879, 1-(4-{2-[2-(4-ethyl-cyclohexyl)-4-oxo-1,3,8-triaza-spiro[4.5]dec-1-ene-8-sulfonyl]-ethyl}-3-methyl-phenyl)-5-methyl-imidazolidine-2,4-dione]",70%
14,"Cc1cc(C(=O)N2CC(O)C2)cc(C)c1/C=C/S(=O)(=O)N1CCC2(CC1)N=C(c1cccc(OC(F)(F)F)c1)NC2=O [Compound 408, 8-{(E)-2-[4-(3-hydroxy-azetidine-1-carbonyl)-2,6-dimethyl-phenyl]-ethenesulfonyl}-2-(3-trifluoromethoxy-phenyl)-1,3,8-triaza-spiro[4.5]dec-1-en-4-one]",117%
15,"O=C1NC(C2CCCCC2)=NC12CCN(S(=O)(=O)CCc1ccc(CCO)cc1)CC2 [Compound 280, 2-cyclohexyl-8-{2-[4-(2-hydroxy-ethyl)-phenyl]-ethanesulfonyl}-1,3,8-triaza-spiro[4.5]dec-1-en-4-one]",57%
16,"NS(=O)(=O)CCCn1ccc2c(/C=C/S(=O)(=O)N3CCC4(CC3)N=C(C3CCCCC3)NC4=O)cccc21 [Compound 484, 3-{4-[(E)-2-(2-cyclohexyl-4-oxo-1,3,8-triaza-spiro[4.5]dec-1-ene-8-sulfonyl)-vinyl]-indol-1-yl}-propane-1-sulfonic acid amide]",47%
17,"Cc1cc(N(C)C(N)=O)cc(C)c1CCS(=O)(=O)N1CCC2(CC1)N=C([C@H]1CCC[C@@H](CCC(C)C)C1)NC2=O [Compound 1146, 1-[3,5-dimethyl-4-(2-{2-[(1S,3S)-3-(3-methyl-butyl)-cyclohexyl]-4-oxo-1,3,8-triaza-spiro[4.5]dec-1-ene-8-sulfonyl}-ethyl)-phenyl]-1-methyl-urea]",107%
18,"CCCCC1CCC(C2=NC3(CCN(S(=O)(=O)/C=C/c4ccc(N5C(=O)CNC5=O)cc4C)CC3)C(=O)N2)CC1 (stereo not drawn) [Compound 560, 3-(4-{(E)-2-[2-(4-Butyl-cyclohexyl)-4-oxo-1,3,8-triaza-spiro[4.5]dec-1-ene-8-sulfonyl]-vinyl}-3-methyl-phenyl)-imidazolidine-2,4-dione]",66%
